Assay results reported in patent US20060134602A1, “Methods of identifying cytotoxic effects in quiescent cells” (priority 2004, published 2006).
pIC50: −log10 of the molar value. Like-named read-outs stand apart in the source and are kept apart here. *1 amine or outer side, *2 acyl side, *3 side chain or, on linkers, in order; H or OH if unused. Where a SMILES comes first, the peptide text is derived from it. Bridges are numbered along the chain shown (N, C = ends). Roman numbers before positions name the chains, in order. [ ]: non-standard residue; d: D form. Actinocin(9to1) = Cc1c2oc3c(C)ccc(C(=O)[*:1])c3nc-2c(C(=O)[*:2])c(N)c1=O; NMeV = CN[C@H](C(=O)O)C(C)C; Sar = CNCC(=O)O

Tests used:
[1] = tested on: quiescent IMR-90 human lung fibroblasts; experiment: cells
Description: Quantitation of Cytotoxicity: A luciferase assay kit was used to quantitate the amount of ATP produced by cells in each well to measure cytotoxicity of the compounds. The assay utilizes the enzyme luciferase which catalyses a reaction of ATP and luciferin to form light. The light produced is measured to determine the amount of ATP produced by the cells in each well. The higher the cell mortality in each well, the less ATP, and consequently, the less light will be produced. […] Wells in rows one and two, which contained no compound, were controls.
Preparation of Quiescent Cells: A 96 well plate was plated at 0.8×10^4 cells/well in 200 μL of growth medium (MEM with Earle's salt) with IMR-90 human lung fibroblasts. The cells were incubated at 37° C. for four days.
The media was removed from the wells, and each well was washed twice with 200 μL of MEM with Earle's salt and no serum. 90 μL/well of MEM with Earle's salt media containing sodium pyruvate, non-essential amino acids, L-glutamine and 0.1% fetal bovine serum was added to each well, and the cells were incubated for one day at 37° C.
10 μL of carbonyl cyanide (a positive control for cytotoxicity) stock solutions were added to rows one and two to obtain concentrations of 0 μM, 0.003 μM, 0.01 μM, 0.03 μM, 0.1 μM, 0.3 μM, 1.0 μM, 3.0 μM, 10.0 μM, 30.0 μM, and 100.0 μM in wells 2 through 12. 10 μL of stock solution of test compounds were added to duplicate row to obtain concentrations of 0 μM, 0.003 μM, 0.01 μM, 0.03 μM, 0.1 μM, 0.3 μM, 1.0 μM, 3.0 μM, 10.0 μM, 30.0 μM, and 100.0 μM in wells 2 through 12. The first well in each row contained no cells. […] The cells were incubated with the test compounds for 24 hours, 48 hours, or 72 hours.

[2] = tested on: proliferating cancer cells; conditions: cited from earlier work
[3] = read-out: IC50, 24 hours, quiescent IMR-90 human lung fibroblasts, 24 hours incubation
[4] = read-out: IC50, 48 hours, quiescent IMR-90 human lung fibroblasts, 48 hours incubation
[5] = read-out: IC50, 72 hours, quiescent IMR-90 human lung fibroblasts, 72 hours incubation
[6] = Homo sapiens, IMR-90, 24 h, read-out: IC50, 24 hours, quiescent IMR-90 human lung fibroblasts, 24 hours incubation
[7] = Homo sapiens, IMR-90, 48 h, read-out: IC50, 48 hours, quiescent IMR-90 human lung fibroblasts, 48 hours incubation
[8] = Homo sapiens, IMR-90, 72 h, read-out: IC50, 72 hours, quiescent IMR-90 human lung fibroblasts, 72 hours incubation

SMILES	pIC50 [1, 3]	pIC50 [1, 4]	pIC50 [1, 5]	pIC50 [1, 6]	pIC50 [1, 7]	pIC50 [1, 8]	also measured
O=C1[O][Pt]2([NH][C@@H]3CCCC[C@H]3[NH]2)[O]C1=O [Oxaliplatin, oxaliplatin]	< 5.00	< 5.00	< 5.00	–	–	–	–
Nc1ccn([C@@H]2O[C@H](CO)[C@@H](O)C2(F)F)c(=O)n1 [Gemcitabine, gemcitabine]	–	–	–	< 5.00	< 5.00	< 5.00	–
O=c1[nH]cc(F)c(=O)[nH]1 [5-FU, 5-fluorouricil]	< 5.00	< 5.00	< 5.00	–	–	–	–
COc1cccc2c1C(=O)c1c(O)c3c(c(O)c1C2=O)C[C@@](O)(C(=O)CO)C[C@@H]3O[C@H]1C[C@H](N)[C@H](O)[C@H](C)O1 [Doxorubicin, doxorubicin]	–	–	–	< 5.00	5.28	5.60	time dependence of cytotoxicity against quiescent fibroblasts [1]: time-dependent increases in cytotoxicity
CC[C@]1(O)C[C@@H]2CN(CCc3c([nH]c4ccccc34)[C@@](C(=O)OC)(c3cc4c(cc3OC)N(C)[C@H]3[C@@](O)(C(=O)OC)[C@H](OC(C)=O)[C@]5(CC)C=CCN6CC[C@]43[C@@H]65)C2)C1 [Vinblastine, vinblastine]	–	–	–	< 5.00	< 5.00	< 5.00	–
C[C@@H]1C[C@@H]([C@H](O)CC2CC(=O)NC(=O)C2)C(=O)[C@@H](C)C1 [cycloheximide]	–	–	–	–	–	–	pIC50 ([1]; Homo sapiens, IMR-90, 24 h, read-out: IC50, 24 hours): < 5.00; pIC50 ([1]; Homo sapiens, IMR-90, 48 h, read-out: IC50, 48 hours): < 5.00; pIC50 ([1]; Homo sapiens, IMR-90, 72 h, read-out: IC50, 72 hours): < 5.00
COc1cc([C@@H]2c3cc4c(cc3[C@@H](O[C@@H]3O[C@@H]5CO[C@@H](C)O[C@H]5[C@H](O)[C@H]3O)[C@H]3COC(=O)[C@H]23)OCO4)cc(OC)c1O [Etoposide, etoposide]	–	–	–	< 5.00	< 5.00	< 5.00	–
Cc1c2oc3c(C)ccc(C(=O)N[C@@H]4C(=O)N[C@H](C(C)C)C(=O)N5CCC[C@H]5C(=O)N(C)CC(=O)N(C)[C@@H](C(C)C)C(=O)O[C@@H]4C)c3nc-2c(C(=O)N[C@@H]2C(=O)N[C@H](C(C)C)C(=O)N3CCC[C@H]3C(=O)N(C)CC(=O)N(C)[C@@H](C(C)C)C(=O)O[C@@H]2C)c(N)c1=O [Atinomycin D, actinomycin D] (I: T[dV]P[Sar][NMeV] / II: T[dV]P[Sar][NMeV]; ester I:1-I:C, II:1-II:C; linker I:N-II:N via Actinocin(9to1))	< 5.00	< 5.00	5.51	–	–	–	time dependence of cytotoxicity against quiescent fibroblasts [1]: time-dependent increases in cytotoxicity
CC(=O)O[C@H]1C(=O)[C@@]2(C)[C@H]([C@H](OC(=O)c3ccccc3)[C@]3(O)C[C@H](OC(=O)[C@H](O)[C@@H](NC(=O)c4ccccc4)c4ccccc4)C(C)=C1C3(C)C)[C@]1(OC(C)=O)CO[C@@H]1C[C@@H]2O [Paclitaxel, paclitaxel]	–	–	5.00	< 5.00	< 5.00	5.07	concentration inhibiting cancer cell growth [2]: low nanomolar concentration; concentration at which cytotoxic to quiescent fibroblasts ([1]; human, 72 h): approximately 10 μM
CCc1c2c(nc3ccc(O)cc13)-c1cc3c(c(=O)n1C2)COC(=O)[C@]3(O)CC [SN-38]	5.15	5.10	5.07	–	–	–	–
CO[C@@]12[C@H](COC(N)=O)C3=C(C(=O)C(C)=C(N)C3=O)N1C[C@@H]1N[C@@H]12 [Mitomycin C, mitomycin C]	< 5.00	< 5.00	5.30	–	–	–	–
CC[C@]1(O)C[C@H]2CN(CCc3c([nH]c4ccccc34)[C@@](C(=O)OC)(c3cc4c(cc3OC)N(C=O)[C@H]3[C@@](O)(C(=O)OC)[C@H](OC(C)=O)[C@]5(CC)C=CCN6CC[C@]43[C@@H]65)C2)C1 [Vincristine, vincristine]	–	–	–	< 5.00	< 5.00	< 5.00	–
